Key:
BRD4-BD1 = BRD4-BD1 (Homo sapiens (Human), UniProt O60885); assay: AlphaLisa bromodomain binding assay, BRD4-BD1; conditions: Table 6; read-out: BRD4(1) IC50
BRD4-BD2 = BRD4-BD2 (Homo sapiens (Human), UniProt O60885); assay: AlphaLisa bromodomain binding assay, BRD4-BD2; conditions: Table 6; read-out: BRD4(2) IC50
Description: (§1) An AlphaLisa assay was used to observe bromodomain binding and measure IC50s for the compounds disclosed herein. An AlphaLisa assay is a bead-based assay used to detect interactions between bromodomains and polyacetylated histone peptides. Donor and acceptor beads bound to target and ligand are brought into proximity by this protein-protein interaction.
(§2) Equipment Required • 1. […] Plate centrifuge • 3. Plate shaker • 4. […] Single channel and multi-channel pipettes • 6. Microplate reader (Pherastar)
(§3) Stock and Final Assay Concentrations (FAC) • 1. All reference and test compounds are made at a concentration of 10 mM in DMSO. Compounds are serially diluted in DMSO and a FAC starting from 10 μM to 10 point 3 fold serial dilutions is arrived. FAC of DMSO is 1%. • 2. Enzyme stock and FAC
(§4) Biotinylated substrate (Acetylated histone H4, biotinylated substrate—cat no. AS64989-025, Anaspec) stock and FAC
(§5) • 4. Acceptor and donor beads stock and FAC
(§6) Buffers • For the enzyme and substrate dilution following buffer is used (for 50 ml) • HEPES: 50 mM 2.5 ml • NaCl: 25 mM 1.25 ml • DTT: 10 mM 0.05 ml • BSA: 0.1% 0.05 g • MilliQ water: 45.7 ml • For dilution of acceptor and donor beads AlphaLISA 5× epigenetics Buffer Perkin Elmer (Cat: AL008C) is used at 1× concentration.
(§7) Procedure • 1. […] Tap the plate gently • 3. […] Cover with plate sealer • 5. […] Incubate the plate at room temperature for 10 minutes • 7. Add 10 μl of the substrate • 8. Cover with plate sealer • 9. […] Cover with plate sealer • 14. […] Cover with plate sealer • 18.
(§8) The percent inhibition is calculated in the excel analysis template and the IC50 values are subsequently determined using a sigmoidal dose-response curve (variable slope) using GraphPad Prism® 5 software.

BRD2-BD1 = BRD2-BD1 (Homo sapiens (Human), UniProt P25440); assay: AlphaLisa bromodomain binding assay, BRD2-BD1; conditions: Table 6; read-out: BRD2(1) IC50
Description: as §1, §2, §3, §4, §5, §6, §7, §8

BRD3-BD1 = BRD3-BD1 (Homo sapiens (Human), UniProt Q15059); assay: AlphaLisa bromodomain binding assay, BRD3-BD1; conditions: Table 6; read-out: BRD3(1) IC50
Description: as §1, §2, §3, §4, §5, §6, §7, §8

BRDT-BD1 = BRDT-BD1 (Homo sapiens (Human), UniProt Q58F21); assay: AlphaLisa bromodomain binding assay, BRDT-BD1; conditions: Table 6; read-out: BRDT(1) IC50
Description: as §1, §2, §3, §4, §5, §6, §7, §8

JAK2 = JAK2 (Homo sapiens (Human), UniProt O60674); assay: HTRF kinase assay, JAK2; assay type: biochemical; conditions: Table 6
JAK1 = JAK1 (Homo sapiens (Human), UniProt P23458); assay: HTRF kinase assay, JAK1; assay type: biochemical; conditions: Table 6
Description: (§9) A kinase assay with HTRF was used to observe JAK activity and calculate the IC50s of compounds disclosed herein. HTRF is an enzymatic assay used to determine the amount of phosphorylated peptide. FRET (Fluorescence Resonance Energy Transfer) is based on the transfer of energy between two fluorophores—a donor and an acceptor—when in close proximity. Molecular interactions between biomolecules can be assessed by coupling each partner with a fluorescent label and by detecting the level of energy transfer. The amount of phopshorylated peptide can be detected using a combination of a Eu 3+Cryptate labeled anti-phospho residue antibody, SA-XL665 and a biotinylated substrate. The signal is proportional to the concentration of phospho-residues.
(§10) Equipment Required • 1. […] Plate centrifuge • 3. Plate shaker • 4. […] Single channel and multi-channel pipettes • 6. Microplate reader (Pherastar)]
as §3, with “arrived. For Ruxolitinib the starting FAC is 1 μM.” for “arrived.”
(§11) • JAK-1: Invtirogen Cat: PR8767C • JAK-2: Invtirogen Cat: PR7820B • JAK-3: Invtirogen Cat: PR7507B • 3. Substrate (synthetic peptide-Biotinylated-N-terminal tag-[…] from Biopeptide) stock and FAC
(§12) • Adenosine 5′-triphosphate disodium salt hydrate: Sigma Cat: A26209 • 5. […] Buffers • Base buffer (for 50 ml)
(§13) • HTRF buffer: • 50 mM Tris-HCl, pH—7.5 • 100 mM NaCl • 0.1% BSA • 0.05% Tween20 • 0.5 mM EDTA
(§14) To a 384 well black-plate: • 1. Add 17 μL of the buffer to each well of the 384-well black plate • 2. […] Add 5 μl of the enzyme to each well of the plate • 4. Add 10 μl of the substrate and ATP mix to all the wells • 5. Cover with plate sealer • 6. […] Incubate at room temperature for 1 hour on shaker • 8. […] Add 37.5 μL of the HTRF mix to these wells. • 9. Incubate the plate at room temperature on shaker for 45 minutes. • 10.
as §8

JAK3 = JAK3 (Homo sapiens (Human), UniProt P52333); assay: HTRF kinase assay, JAK3; assay type: biochemical; conditions: Table 6
Description: as §9, §10
as §3, with “arrived. For Ruxolitinib the starting FAC is 1 μM.” for “arrived.”
as §11, §12, §13, §14, §8

Chain of JAK2 (O60674 whole entry): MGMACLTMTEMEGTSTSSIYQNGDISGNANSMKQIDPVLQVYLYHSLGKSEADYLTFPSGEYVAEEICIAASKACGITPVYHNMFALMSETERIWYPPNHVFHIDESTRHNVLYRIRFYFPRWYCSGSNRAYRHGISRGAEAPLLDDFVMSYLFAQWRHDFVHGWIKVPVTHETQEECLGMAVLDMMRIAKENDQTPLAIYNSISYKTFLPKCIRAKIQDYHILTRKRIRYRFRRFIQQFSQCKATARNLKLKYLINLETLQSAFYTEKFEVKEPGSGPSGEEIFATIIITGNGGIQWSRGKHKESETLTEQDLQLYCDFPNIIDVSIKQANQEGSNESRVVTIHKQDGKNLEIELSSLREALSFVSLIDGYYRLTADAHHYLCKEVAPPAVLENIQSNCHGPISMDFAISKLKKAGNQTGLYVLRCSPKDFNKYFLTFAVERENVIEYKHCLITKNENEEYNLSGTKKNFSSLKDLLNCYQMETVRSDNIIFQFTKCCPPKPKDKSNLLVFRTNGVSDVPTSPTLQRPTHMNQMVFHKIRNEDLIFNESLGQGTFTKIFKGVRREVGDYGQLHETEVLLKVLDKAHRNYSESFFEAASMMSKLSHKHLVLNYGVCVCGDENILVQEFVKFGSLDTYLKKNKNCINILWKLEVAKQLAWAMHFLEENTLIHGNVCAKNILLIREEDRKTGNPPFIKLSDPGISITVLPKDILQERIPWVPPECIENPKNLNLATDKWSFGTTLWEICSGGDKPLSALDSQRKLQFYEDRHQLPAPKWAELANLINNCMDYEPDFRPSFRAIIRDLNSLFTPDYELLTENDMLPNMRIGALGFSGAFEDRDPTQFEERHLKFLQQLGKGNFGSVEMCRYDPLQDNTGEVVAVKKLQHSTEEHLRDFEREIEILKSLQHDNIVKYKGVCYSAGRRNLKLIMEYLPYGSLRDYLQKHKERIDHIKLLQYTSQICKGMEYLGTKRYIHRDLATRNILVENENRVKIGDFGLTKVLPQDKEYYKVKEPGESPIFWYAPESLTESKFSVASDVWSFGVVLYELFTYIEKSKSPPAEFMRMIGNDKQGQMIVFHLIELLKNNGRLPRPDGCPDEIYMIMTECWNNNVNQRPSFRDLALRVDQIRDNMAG
Chain of BRD2-BD1 (P25440 74-180): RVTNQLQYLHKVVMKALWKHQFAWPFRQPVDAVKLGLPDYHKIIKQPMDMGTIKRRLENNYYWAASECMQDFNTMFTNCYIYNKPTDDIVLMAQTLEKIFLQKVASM
Chain of BRD3-BD1 (Q15059 34-140): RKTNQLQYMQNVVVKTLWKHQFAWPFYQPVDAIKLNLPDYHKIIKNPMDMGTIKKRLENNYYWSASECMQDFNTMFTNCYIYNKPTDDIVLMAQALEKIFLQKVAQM
Chain of JAK3 (P52333 whole entry): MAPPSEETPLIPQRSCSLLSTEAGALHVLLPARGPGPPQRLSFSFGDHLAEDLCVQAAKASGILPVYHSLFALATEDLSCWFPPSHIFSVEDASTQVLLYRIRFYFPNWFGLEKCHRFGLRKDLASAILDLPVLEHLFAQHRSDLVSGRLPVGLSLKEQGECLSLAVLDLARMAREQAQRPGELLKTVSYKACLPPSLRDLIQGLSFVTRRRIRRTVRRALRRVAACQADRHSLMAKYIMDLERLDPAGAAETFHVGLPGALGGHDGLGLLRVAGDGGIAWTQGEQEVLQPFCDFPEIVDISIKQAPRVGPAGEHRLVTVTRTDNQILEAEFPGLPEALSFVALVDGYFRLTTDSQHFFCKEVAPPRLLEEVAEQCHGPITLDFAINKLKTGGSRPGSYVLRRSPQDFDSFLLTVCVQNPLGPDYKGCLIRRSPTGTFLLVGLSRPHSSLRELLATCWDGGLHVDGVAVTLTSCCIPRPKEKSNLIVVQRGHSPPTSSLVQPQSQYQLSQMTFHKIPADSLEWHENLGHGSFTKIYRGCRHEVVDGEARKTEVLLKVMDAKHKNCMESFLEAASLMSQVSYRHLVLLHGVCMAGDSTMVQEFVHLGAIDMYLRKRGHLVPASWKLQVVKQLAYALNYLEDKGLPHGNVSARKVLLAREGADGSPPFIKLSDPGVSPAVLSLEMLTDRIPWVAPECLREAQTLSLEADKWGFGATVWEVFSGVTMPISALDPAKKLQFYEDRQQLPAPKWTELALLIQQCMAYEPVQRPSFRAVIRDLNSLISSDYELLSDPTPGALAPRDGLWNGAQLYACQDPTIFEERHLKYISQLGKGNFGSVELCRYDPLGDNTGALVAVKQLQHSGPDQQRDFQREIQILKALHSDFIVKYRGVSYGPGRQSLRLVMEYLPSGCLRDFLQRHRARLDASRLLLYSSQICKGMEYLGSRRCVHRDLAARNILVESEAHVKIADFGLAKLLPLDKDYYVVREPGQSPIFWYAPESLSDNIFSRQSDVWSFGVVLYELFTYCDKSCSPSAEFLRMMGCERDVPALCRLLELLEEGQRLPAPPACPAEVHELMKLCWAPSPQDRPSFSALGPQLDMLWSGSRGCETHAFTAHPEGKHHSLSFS
Chain of JAK1 (P23458 whole entry): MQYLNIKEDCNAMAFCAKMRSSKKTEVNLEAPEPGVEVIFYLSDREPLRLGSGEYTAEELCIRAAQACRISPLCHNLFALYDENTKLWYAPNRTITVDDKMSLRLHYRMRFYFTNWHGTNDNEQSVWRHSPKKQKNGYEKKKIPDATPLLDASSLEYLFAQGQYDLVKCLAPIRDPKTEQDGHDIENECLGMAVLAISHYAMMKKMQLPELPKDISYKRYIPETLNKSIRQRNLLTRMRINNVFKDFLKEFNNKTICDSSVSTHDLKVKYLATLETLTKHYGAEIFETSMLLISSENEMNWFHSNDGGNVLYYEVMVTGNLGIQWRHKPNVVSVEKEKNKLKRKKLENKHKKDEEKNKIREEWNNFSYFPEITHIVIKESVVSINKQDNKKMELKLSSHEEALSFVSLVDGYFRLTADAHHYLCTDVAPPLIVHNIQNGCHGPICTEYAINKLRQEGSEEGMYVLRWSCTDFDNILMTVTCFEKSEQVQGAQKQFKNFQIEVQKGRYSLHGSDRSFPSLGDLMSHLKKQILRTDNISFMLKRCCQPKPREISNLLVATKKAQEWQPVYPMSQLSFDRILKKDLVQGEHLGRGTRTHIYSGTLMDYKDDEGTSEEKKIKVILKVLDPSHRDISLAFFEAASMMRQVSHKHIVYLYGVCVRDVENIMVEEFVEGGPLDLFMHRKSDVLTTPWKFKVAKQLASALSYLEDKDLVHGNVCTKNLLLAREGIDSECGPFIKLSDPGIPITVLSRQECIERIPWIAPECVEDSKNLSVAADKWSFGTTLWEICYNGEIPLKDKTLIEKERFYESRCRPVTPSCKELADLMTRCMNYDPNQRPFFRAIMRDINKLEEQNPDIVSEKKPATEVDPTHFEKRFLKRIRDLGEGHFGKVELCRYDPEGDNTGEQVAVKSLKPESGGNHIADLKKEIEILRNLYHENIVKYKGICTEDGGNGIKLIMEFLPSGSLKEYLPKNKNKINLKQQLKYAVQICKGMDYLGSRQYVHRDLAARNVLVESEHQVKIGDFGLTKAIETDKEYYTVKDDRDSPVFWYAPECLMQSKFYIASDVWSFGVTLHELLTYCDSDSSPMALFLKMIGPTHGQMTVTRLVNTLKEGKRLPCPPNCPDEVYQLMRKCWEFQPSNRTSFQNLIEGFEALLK

IC50 (BRD4-BD1) [µM]	IC50 (BRD4-BD2) [µM]	IC50 (BRD2-BD1) [µM]	IC50 (BRD3-BD1) [µM]	IC50 (BRDT-BD1) [µM]	IC50 (JAK2) [µM]	IC50 (JAK1) [µM]	IC50 (JAK3) [µM]	Structure (SMILES)
0.128	0.0675	0.49	0.109	0.182	0.035	0.972	0.105	CN1CCN(c2ccc(Nc3ncc4ccn(-c5ccc(F)c(NS(=O)(=O)C(C)(C)C)c5)c4n3)cc2)CC1 [drawing 295]
0.063	0.088	0.231	0.049	0.14	0.027	2.1	0.193	CN(C)C1CCN(c2ccc(Nc3ncc4ccn(-c5ccc(F)c(NS(=O)(=O)C(C)(C)C)c5)c4n3)cc2F)CC1 [drawing 366]
0.06	0.064	0.216	0.059	0.118	0.033	2.1	0.272	CC(C)(C)S(=O)(=O)Nc1cc(-n2ccc3cnc(Nc4ccc(N5CCNCC5)c(F)c4)nc32)ccc1F [drawing 428]
0.079	0.085	0.235	0.081	0.185	0.04	3.7	0.206	CC(C)(C)S(=O)(=O)Nc1cc(-n2ccc3cnc(Nc4cc(F)c5c(c4)CC4CNCCN54)nc32)ccc1F (stereo not drawn) [drawing 443]
0.123	0.086	0.36	0.097	0.185	0.039	1.5	0.173	CNC1CCN(c2ccc(Nc3ncc4ccn(-c5ccc(F)c(NS(=O)(=O)C(C)(C)C)c5)c4n3)cc2F)CC1 [drawing 456]
0.192	0.092	0.67	0.154	0.223	0.01	1.2	0.082	CNC1CCN(c2ccc(Nc3ncc4scc(-c5ccc(F)c(NS(=O)(=O)C(C)(C)C)c5)c4n3)cc2F)CC1 [drawing 458]

More lines, now with the values behind:

Structure (SMILES)	IC50 (BRD4-BD1) [µM]	IC50 (BRD4-BD2) [µM]	IC50 (BRD2-BD1) [µM]	IC50 (BRD3-BD1) [µM]	IC50 (BRDT-BD1) [µM]	IC50 (JAK2) [µM]	IC50 (JAK1) [µM]	IC50 (JAK3) [µM]
CN(C)C1CCN(c2ccc(Nc3ncc4scc(-c5ccc(F)c(NS(=O)(=O)C6(C)CC6)c5)c4n3)cc2F)CC1	0.233	0.203	0.605	0.196	0.329	0.011	0.734	0.06
CC(C)(C)S(=O)(=O)Nc1cccc(-c2csc3cnc(Nc4ccc5c(c4)CCN4CCNCC54)nc23)c1 (stereo not drawn)	0.109	0.131	0.489	0.1	0.281	0.002	0.044	0.018
CN1CCN(c2ccc(Nc3ncc4ccn(-c5cccc(NS(=O)(=O)C6CC6)c5)c4n3)cc2)CC1 [drawing 278]	0.355	0.729	1.9	0.825	2.5	0.0025	0.244	0.069
CC(C)(C)S(=O)(=O)Nc1cccc(-n2ccc3cnc(Nc4ccc(N5CCNCC5)cc4)nc32)c1 [drawing 283]	0.152	0.254	1.58	0.5	0.632	0.012	0.418	0.067
O=S(=O)(Nc1cccc(-n2ccc3cnc(Nc4ccc(N5CCNCC5)cc4)nc32)c1)C1CC1 [drawing 296]	0.677	0.574	2.96	0.914	1.21	0.002	0.188	0.015
CN(C)C1CCN(c2ccc(Nc3ncc4ccn(-c5cccc(NS(=O)(=O)C(C)(C)C)c5)c4n3)cc2)CC1 [drawing 317]	0.173	0.062	0.632	0.164	0.406	0.0073	0.4	0.081

From US11279703B2, “Fused pyrimidine compounds as BRD4 and JAK2 dual inhibitors and methods for use thereof” (APTOSE BIOSCIENCES INC., priority 2016, dated 2022)
